Results reported in patent US20160008376A1, “Compositions, Methods and Uses for Treating Gender-Biased Immune Disorders” (Biocopea Limited, priority 2014, published 2016).

System: antibodies directed to the CH47 region of the P1/P2 ribosomal protein
Experiment: Hormone added to sera of immunized female mice, antibody signal for the CH47 peptide
Type: binding
Conditions: overall
Procedure: In a second series of experiments, Testosterone (0 ng/mL, 0.5 ng/mL, 1 ng/mL, 2 ng/mL, and 4 ng/mL) or Progesterone (0 ng/mL, 2 ng/mL, 4 ng/mL, 8 ng/mL, and 14 ng/mL) was added to the sera of female mice immunized with a variety of different Chagas peptides (Formulation 1 or 2) that either include (B) or excluded (A) specifically peptide CH47. […] At low hormone concentrations there was an increase in the antibody signal with a subsequent decrease as the concentration of hormone further increased.

Compound	decrease in the IgG response (hormone 0-14 ng/mL) [%]	decrease in the antibody response (hormone 0-4 ng/mL) [%]
CC(=O)[C@H]1CC[C@H]2[C@@H]3CCC4=CC(=O)CC[C@]4(C)[C@H]3CC[C@]12C [Progesterone, pregn-4-ene-3,20-dione]	26.2	–
C[C@]12CC[C@H]3[C@@H](CCC4=CC(=O)CC[C@@]43C)[C@@H]1CC[C@@H]2O [Testosterone]	–	24.4
